Assay results taken from patent publication US20250288583A1, “Treatment of Mucus Hypersecretion” (priority 2024, published 2025).

Assays:
nasal mucus secretion = test: Range-finding study of CPS-125, Up-Down method, nasal mucus secretion as endpoint; type: in vivo, human
Source text: The recognition that inhibition of mucus hypersecretion might be a valuable and unique pharmacological attribute of TRPM8 agonists prompted the applicant to re-examine such compounds in his inventory. CPS-125 was described by Wei in U.S. Pat. No. 7,417,048 (August 2008), and its structure is in Table 10. This molecule incorporates a sulfamoyl group to increase water solubility and is sulfadiazine coupled to p-menthanecarboxamide. In a range-finding study, CPS-125 was suspended in 1% Ethanol/2% Polysorbate 80/saline and titrated using the Up-Down method of Dixon (Annu. Rev. Pharmacol. Toxicol. 20:441-462.1980) with nasal mucus secretion as the endpoint. The effective concentration for reducing secretions by +80% was 8 mg/ml of CPS-125. […] Such heterocyclic structures include pyrrole, furan, oxane, thiophene, thioxazole, and oxazole derivatives.
CPS-125 was active when administered as drops or in a manually activated spray. The nose is pinched and released after instilling 0.3 to 0.5 mL into the nostrils. After pinch and release, the reflex sniff or snort enhances delivery of the drops to the ostiomeatal complex. Using a power-assisted nebulizer enhances delivery of CPS-125. CPS-125's molecular weight of 416 Daltons is the highest of the tested compounds. Normally, large lipophilic molecules are not expected to penetrate secretions to reach target. Apparently, the sulfamoyl group confers the qualities of penetration, stability, and retention to make it a viable lead candidate for inhibition of mucus hypersecretion.

philtrum skin = test: Cooling duration bioassay on philtrum skin; type: in vivo, human
Source text: (§1) FIG. 1. Comparison of cooling duration of various p-menthanecarboxamide analogs on philtrum skin versus ocular margins. The philtrum skin is keratinized, but the ocular margins are not. The test substances numbered 1 to 11 are: D-Ala-OiPr, Gly-OiPr, D-Ala-OEt, D-Ala-OMe, D-Ala-GlynPr, GlynPr, D-Ala-OnBu, GlynBu, GlyOEt, L-Ala-OEt, and N-Me-D-Ala-OEt, respectively. Two outliers (1 and 2) were identified as preferred embodiments because they preferentially cool the ocular margins. The nasal cavity surfaces like the ocular margins are not keratinized.
(§2) Cooling agents have been assayed in various ways depending on intended use. For example, for the skin the test substance can be applied on philtrum skin, using descriptions of coolness on a scale of 0 to 3. For the ocular surface, the active ingredient can be applied to the closed eyelids using a wipe. In the oral cavity, drug applications are on the posterior dorsal surface of the tongue. For the oropharyngeal surface, the cooling agent may be applied as an orally disintegrating tablet. The ability of a cooling agent to antagonize a noxious stimuli may also be tested, using nociception from citric acid or chili pepper sauce. Responses are usually measured using a Visual Analog Scale with a numerical rating. For nasal responses, however, such procedures have not been standardized. Some endpoints to consider are open and comfortable breathing, the presence or absence of sniffles, and the secretion of phlegm.

ocular margins = test: Cooling duration bioassay on eyelids/ocular margins; type: in vivo, human; conditions: for Eyelids/Ocular Surface: Table 6, cooling duration, non-keratinized; for Ocular Surface: Table 7, Gly esters
Source text: as §1, §2

hTRPM8 channel = target: T1, hTRPM8 channel (Homo sapiens, UniProt Q7Z2W7); test: TRPM8 receptor assay, calcium entry (Fluo-8, FLIPR) in transfected CHO cells; type: cell-based; conditions: for Potency Relative to L-menthol: ratio of TRPM8 EC50 values, menthol = 1.0
T1 construct: host or cells: CHO cells
T1 sequence (Q7Z2W7 whole entry): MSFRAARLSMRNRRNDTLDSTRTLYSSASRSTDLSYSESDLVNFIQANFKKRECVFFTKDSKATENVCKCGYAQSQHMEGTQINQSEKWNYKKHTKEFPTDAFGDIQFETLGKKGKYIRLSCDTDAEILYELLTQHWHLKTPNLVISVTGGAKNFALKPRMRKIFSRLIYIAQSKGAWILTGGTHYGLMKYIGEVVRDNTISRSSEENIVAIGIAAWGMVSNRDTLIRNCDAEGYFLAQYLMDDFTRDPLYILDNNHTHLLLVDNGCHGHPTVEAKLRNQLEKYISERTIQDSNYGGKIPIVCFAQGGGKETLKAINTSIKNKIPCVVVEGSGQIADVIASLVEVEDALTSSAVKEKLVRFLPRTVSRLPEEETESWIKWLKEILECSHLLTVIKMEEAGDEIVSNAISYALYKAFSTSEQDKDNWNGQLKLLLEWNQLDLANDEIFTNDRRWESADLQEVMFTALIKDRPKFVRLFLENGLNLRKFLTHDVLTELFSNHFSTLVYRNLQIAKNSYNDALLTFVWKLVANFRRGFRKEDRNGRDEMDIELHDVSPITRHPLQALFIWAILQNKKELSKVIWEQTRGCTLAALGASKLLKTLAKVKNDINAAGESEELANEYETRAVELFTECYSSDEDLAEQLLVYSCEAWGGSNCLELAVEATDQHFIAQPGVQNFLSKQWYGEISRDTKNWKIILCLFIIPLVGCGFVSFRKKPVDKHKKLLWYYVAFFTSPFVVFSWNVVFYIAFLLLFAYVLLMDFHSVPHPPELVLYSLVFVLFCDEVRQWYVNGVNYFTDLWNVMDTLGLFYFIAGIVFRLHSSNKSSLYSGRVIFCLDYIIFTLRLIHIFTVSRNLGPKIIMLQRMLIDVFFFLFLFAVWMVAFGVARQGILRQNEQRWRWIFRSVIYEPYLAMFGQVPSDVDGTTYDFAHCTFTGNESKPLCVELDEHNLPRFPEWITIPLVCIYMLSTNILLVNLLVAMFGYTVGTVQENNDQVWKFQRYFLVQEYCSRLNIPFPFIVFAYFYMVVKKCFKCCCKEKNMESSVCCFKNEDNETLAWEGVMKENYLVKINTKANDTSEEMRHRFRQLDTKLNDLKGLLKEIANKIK
Source text: FIG. 4. Agonist activities of TRPM8 analogs. […] The relative fluorescence (RF) unit on the ordinate represents calcium entry into transfected cells. […] The structures of these compounds are in Table 4.
The applicant has synthesized and examined a series of p-menthanecarboxamides conjugated to amino acid esters. […] This class of molecules is called N-alkylcarbonyl-amino acid esters. GlyOiPr is a p-menthanecarboxamide conjugate of glycine isopropyl (iPr) ester. It is similar in structure to WS-5, a cooling agent used as a food additive. WS-5 is the p-menthane-glycine ethyl (Et) ester, or GlyOEt. […] These in vitro effects were measured in CHO cells transfected with the hTRPM8 channel. Receptor activity was quantified using a Fluo-8 calcium kit and a Fluorescence Imaging Plate Reader ([…]™).

oral cavity = test: Chili-pepper sauce test (oral cavity); type: in vivo, human; design: scale not given here; conditions: Table 6; grades 0, +, ++ without key
Source text: as §2

oropharyngeal surface = test: Bioassay on oropharyngeal surface; type: in vivo, human; conditions: Table 7; grades 0, ++ without key
Source text: as §2

nasal cavity = test: Nebulizer screening of TRPM8 agonists for sensations in the nasal cavity; type: in vivo, human; conditions: NasoNeb nebulizer, 3 to 5 sec per nostril
Description: Formulations for nebulization with NasoNeb® used a standard recipe of (Table 8): 1% of the active ingredient (1 to 10 mg/mL), 2% Tween 80 (Polysorbate 80), 1 to 5% ethanol, and made up to 100% with water. The mixture is centrifuged in a FlackTek, Inc., Speedmixer for at least 10 min at 3000 rpm. The Speedmixer spins the sample in 3 dimensions. The result is a white homogeneous liquid suspension with some of the solids now dissolved. For dosing, ˜2 to 3 mL is loaded into the canister of the nebulizer. The nebulizer nozzle tip is placed in the nostril and activated by pressing a button for 3 to 5 sec using a clock timer. […] For D-Ala-OiPr a 5-sec activation will deliver 2*0.73 mL*2 mg/ml, or a total dose of 3 mg per nose. The nasal cavity is relatively tolerant to exogenous agents with irritant properties, as many rinses are used for rhinitis and sinusitis. For some p-menthanecarboxamide analogs, a 2% (20 mg/mL) solution is possible and contemplated. An ideal agent reproduces a comfortable cooling or sensations of negative heat flux in the nasal cavity. […] Heat flux refers to the rate of heat transfer per unit area. The sinonasal cavity mucosa differs from philtrum skin and ocular margins in histology, so the choice of the right molecule must be made by experiment. The TRPM8 agonists were chosen for screening using a nebulizer for delivery. The NasoNeb system is powerful and effective for the OMC (FIG. 3). The delivery time per nostril in three to five seconds. […] These parameters were estimated in the initial trials: • Onset and offset of cooling sensations in the nasal cavity. • The intensity and quality of the cooling sensations in the nasal cavity. • Presence of effects such as sneezing or cough after dosing. • Degree of nasal stuffiness on a scale of 0 to 5. • Degree of rhinorrhea and phlegm in nasal secretions. • Questions regarding comfort and sleep at night.

ostiomeatal complex = test: Case studies: nebulized cooling agent in subjects with rhinitis and rhinosinusitis; type: in vivo, human; conditions: NasoNeb delivery in subjects with rhinosinusitis
Source text: Eight subjects with rhinitis and rhinosinusitis volunteered to test cooling agents delivered with the NasoNeb® nebulizer (FIG. 3). The results were clear, robust, and evident. No statistical analysis was necessary. In a 3 to 5-day course of nebulization t.i.d., all subjects reported the ability to manage and control stuffed-up breathing in their activities. All reported comfortable sleep. The sounds of sniffling and congestion of the nose (“sniffles”), snorting, or gurgling were still present, but to a lesser degree. The subject felt it was easier to blow out liquids from the nasal cavity onto a tissue, and the volume and frequency of blowing decreased. Viscous yellow mucus was less in volume and density. The number of wipes deposited daily into a waste basket decreased by >50%. The subjects-were cheerful and enthusiastic because nasal discomfort was under control. As one subject remarked: “The stuffed-up nose problem is now history!” Severat of these cases are reported below as “Case Studies.”
The subject was given a NasoNeb® nebulizer (unavailable in China) and five individual bottles containing 15 mL of a 1% GlyOiPr solution (suspended in 2% Tween 80, 5% ethanol, and 92% water). They were shown how to load the NasoNeb canister with about 2 mL of liquid and activate the device for a 3-second dose into each nostril. The recommended dosage was three times a day, starting in the morning and at about 6-hour intervals, and for five days.
The subject agreed to using the NasoNeb nebulizer with a cooling agent. They were given a NasoNeb nebulizer and three bottles, each containing 15 ml of a 1% GlyOiPr solution (suspended in 2% Tween 80, 5% ethanol, and 92% water). They were shown how to load the NasoNeb canister with about 2 mL of liquid and activate the device for a 3-second dose into each nostril. The recommended dosage was three times a day, starting in the morning and at about 6-hour intervals, and for five days. After a 5-day trial, the subject noted a significant improvement in sleep and comfortable breathing. […] Their headaches were gone, and their appetite improved. They were advised to continue using the Nebulizer/coolant for another week and then on an as-needed basis. Their family has noticed that the subject has become less withdrawn, more engaging, and interested in their surroundings.
The subject volunteered for a trial with GlyOiPr. They were given a NasoNeb® machine and a plastic squeeze bottle containing 50 mL of GlyOiPr at 3 mg/mL suspended in 1% ethanol/2% polysorbate 80. They learned how to load the canister and activate the pump. Then, they were instructed to rinse their nose thoroughly first thing in the morning and then use the Nebulizer at 5 sec per nostril to deliver the solution. The procedure was to be repeated at 2 hours and 5 hours later to total three daily activations. The subject was interviewed after dosing for three days. They said breathing was much easier at night after the dosing, and they slept well. Nasal secretions were still present but less in volume. […] They were encouraged to use the Nebulizer as needed but not to exceed three daily doses. Three weeks after the start of the experiment, they reported that they were in complete control of their rhinitis. They would do a single dose at night before sleep and one in the morning when needed. They no longer felt congested, and the headaches were gone. The slimy phlegm in the nostrils was gone, and crusting was absent. Their nose felt clean. Their social life improved.
Their main complaint was episodes at night when they would wake up and not be able to breathe comfortably. Sleep apnea and lung disorders were ruled out, and the diagnosis was rhinosinusitis. This was confirmed by a computerized tomography scan and endoscopic examination by a qualified ENT specialist. They agreed to test the preferred embodiments GlyOnPr, GlyOiPr, D-Ala-OnPr, and D-Ala-OiPr systematically, one after the other.

TRPV1 = target: T2, TRPV1 (Homo sapiens, UniProt Q8NER1); test: TRPV1 specificity assay in transfected cells; type: cell-based; conditions: FIG. 5; capsaicin positive control
T2 construct: expressed in transfected cells
T2 sequence (Q8NER1 whole entry, species assumed): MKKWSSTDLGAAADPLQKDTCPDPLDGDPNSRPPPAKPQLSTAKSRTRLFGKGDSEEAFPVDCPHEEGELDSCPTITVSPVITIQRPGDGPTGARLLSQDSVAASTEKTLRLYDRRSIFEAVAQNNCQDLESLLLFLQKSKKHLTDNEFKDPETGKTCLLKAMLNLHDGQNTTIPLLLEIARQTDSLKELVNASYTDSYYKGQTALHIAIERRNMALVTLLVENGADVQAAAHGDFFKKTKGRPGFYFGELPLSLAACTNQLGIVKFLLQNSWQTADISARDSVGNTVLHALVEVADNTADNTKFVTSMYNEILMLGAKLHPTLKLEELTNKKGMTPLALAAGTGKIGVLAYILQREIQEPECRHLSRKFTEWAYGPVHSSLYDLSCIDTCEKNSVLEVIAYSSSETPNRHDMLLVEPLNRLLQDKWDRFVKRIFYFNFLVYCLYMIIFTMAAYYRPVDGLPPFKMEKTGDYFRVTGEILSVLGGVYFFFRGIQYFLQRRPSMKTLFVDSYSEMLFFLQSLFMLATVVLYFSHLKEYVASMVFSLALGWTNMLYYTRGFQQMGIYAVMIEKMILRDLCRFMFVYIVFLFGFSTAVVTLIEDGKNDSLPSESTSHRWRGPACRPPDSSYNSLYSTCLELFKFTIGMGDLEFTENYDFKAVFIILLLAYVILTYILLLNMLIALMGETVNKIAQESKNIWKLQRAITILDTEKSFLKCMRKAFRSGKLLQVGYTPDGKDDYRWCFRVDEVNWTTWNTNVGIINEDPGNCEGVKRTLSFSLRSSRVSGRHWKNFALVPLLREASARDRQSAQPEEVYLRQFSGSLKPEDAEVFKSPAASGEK

[1] = Table 6, cooling duration, keratinized skin

Row | Structure (SMILES) | Activity when administered as drops or in a manually activated spray (nasal mucus secretion; 0.3 to 0.5 mL into the nostrils, pinch and release) | Duration of action among the 25+ compounds tested (nasal mucus secretion; in vivo) | Effective concentration for reducing secretions by +80% (nasal mucus secretion; suspended in 1% Ethanol/2% Polysorbate 80/saline, Up-Down method of Dixon) | Philtrum Skin (philtrum skin; [1]) | Philtrum Skin (philtrum skin; Table 7, Gly esters) | Eyelids/Ocular Surface (ocular margins) | Ocular Surface (ocular margins) | Increase of cooling on raising the concentration (ocular margins; from 1 mg/ml to 2 mg/ml) | Increase of cooling on raising the concentration (ocular margins; from 1 mg/ml to 5 mg/ml) | Potency Relative to L-menthol (hTRPM8 channel) | Chili-Pepper Sauce Test (oral cavity) | Oropharyngeal Surface (oropharyngeal surface) | EC50 (hTRPM8 channel; CHO cells transfected with hTRPM8, Fluo-8 calcium kit, FLIPR) | Sensory effects after delivery into the nasal cavity (nasal cavity) | Relief of stuffiness and breathing (ostiomeatal complex) | Response of cells transfected with TRPV1 (TRPV1)
1 | CC(C)[C@@H]1CC[C@@H](C)C[C@H]1C(=O)Nc1ccc(S(=O)(=O)Nc2ncccn2)cc1 [CPS-125, (1R,2S,5R)-2-Isopropyl-5-methyl-cyclohexanecarboxylic acid [4-(pyrimidin-2-ylsulfamoyl)-phenyl]-amide] | active | longest duration of action | 8 mg/mL |  |  |  |  |  |  |  |  |  |  |  |  | 
2 | CCOC(=O)CNC(=O)[C@@H]1C[C@H](C)CC[C@H]1C(C)C [GlyOEt, [((1R,2S,5R)-2-isopropyl-5-methyl-cyclohexanecarbonyl)-amino]-acetic acid ethyl ester, reference compound] |  |  |  | 24 min | 24 min | 15 min | 15 min | 15 min | 22 min | 10.6 | 0 | 0 |  |  |  | 
3 | CCCCOC(=O)CNC(=O)[C@@H]1C[C@H](C)CC[C@H]1C(C)C [GlyOnBu, [((1R,2S,5R)-2-isopropyl-5-methyl-cyclohexanecarbonyl)-amino]-acetic acid n-butyl ester] |  |  |  | 38 min | 38 min | 35 min | 35 min |  |  | 2.8 | 0 | 0 | 1360 nM |  |  | 
4 | CCCOC(=O)CNC(=O)[C@@H]1C[C@H](C)CC[C@H]1C(C)C [GlyOnPr, [((1R,2S,5R)-2-isopropyl-5-methyl-cyclohexanecarbonyl)-amino]-acetic acid n-propyl ester] |  |  |  | 42 min | 42 min | 54 min | 54 min |  |  |  | 0 | 0 |  | About the same duration of action as GlyOiPr, but less refreshing. | provided relief | 
5 | COc1cc(CNC(=O)CCCC/C=C/C(C)C)ccc1O [capsaicin, reference compound] |  |  |  |  |  |  |  |  |  |  |  |  |  |  |  | respond
